The record followed here is ChEMBL document CHEMBL5291721, “A preclinical secondary pharmacology resource illuminates target-adverse drug reaction associations of marketed drugs” (Nat Commun, 2023).

Usually AC50 stands for the midpoint of the concentration-response curve, whichever way the signal moves. The low end stands for greater potency, the high end for weaker potency.

Experiment [1] deals with T1, Nuclear receptor subfamily 1 group I member 3 (Homo sapiens, UniProt Q14994).
T1 sequence (Q14994 whole entry): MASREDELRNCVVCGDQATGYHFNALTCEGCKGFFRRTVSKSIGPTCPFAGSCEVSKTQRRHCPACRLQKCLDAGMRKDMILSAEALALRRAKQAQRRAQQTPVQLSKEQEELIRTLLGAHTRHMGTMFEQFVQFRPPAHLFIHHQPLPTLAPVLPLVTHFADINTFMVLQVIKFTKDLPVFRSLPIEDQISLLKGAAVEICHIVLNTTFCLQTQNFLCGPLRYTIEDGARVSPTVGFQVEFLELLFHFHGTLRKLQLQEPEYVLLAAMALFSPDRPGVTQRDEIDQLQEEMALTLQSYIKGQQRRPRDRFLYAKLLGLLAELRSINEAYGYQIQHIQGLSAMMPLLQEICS
The experiment is classed as functional.

Experiment [2] deals with T2, Retinoic acid receptor gamma (Homo sapiens, UniProt P13631).
T2 sequence (P13631 whole entry): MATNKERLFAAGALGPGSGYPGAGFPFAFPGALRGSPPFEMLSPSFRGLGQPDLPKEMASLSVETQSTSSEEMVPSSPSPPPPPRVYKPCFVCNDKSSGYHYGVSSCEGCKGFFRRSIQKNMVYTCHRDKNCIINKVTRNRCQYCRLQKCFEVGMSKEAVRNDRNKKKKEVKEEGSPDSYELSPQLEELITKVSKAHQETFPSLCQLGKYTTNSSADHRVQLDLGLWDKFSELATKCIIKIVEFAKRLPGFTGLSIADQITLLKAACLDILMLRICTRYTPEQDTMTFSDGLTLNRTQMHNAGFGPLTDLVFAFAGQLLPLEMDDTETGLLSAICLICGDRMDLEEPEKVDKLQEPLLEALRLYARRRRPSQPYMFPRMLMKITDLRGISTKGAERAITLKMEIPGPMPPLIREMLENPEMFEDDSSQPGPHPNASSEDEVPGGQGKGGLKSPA
The experiment is classed as functional, cell-based.

Experiment [3] deals with T3, Retinoic acid receptor beta (Homo sapiens, UniProt P10826).
T3 sequence (P10826 whole entry): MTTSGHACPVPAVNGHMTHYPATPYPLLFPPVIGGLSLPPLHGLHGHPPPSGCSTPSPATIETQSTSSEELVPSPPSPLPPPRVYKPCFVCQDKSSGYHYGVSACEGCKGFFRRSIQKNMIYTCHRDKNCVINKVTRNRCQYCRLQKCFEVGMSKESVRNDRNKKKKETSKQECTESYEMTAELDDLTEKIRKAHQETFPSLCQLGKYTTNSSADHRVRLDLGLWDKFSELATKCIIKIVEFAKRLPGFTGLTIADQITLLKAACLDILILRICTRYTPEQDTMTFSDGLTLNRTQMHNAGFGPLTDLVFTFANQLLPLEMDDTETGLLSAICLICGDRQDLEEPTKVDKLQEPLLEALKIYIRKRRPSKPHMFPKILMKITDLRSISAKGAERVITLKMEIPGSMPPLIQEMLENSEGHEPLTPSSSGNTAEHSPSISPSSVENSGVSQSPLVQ
In kind it is functional, cell-based.

Experiment [4] concerns the target T4, Oxysterols receptor LXR-beta (Homo sapiens, UniProt P55055).
T4 sequence (P55055 whole entry): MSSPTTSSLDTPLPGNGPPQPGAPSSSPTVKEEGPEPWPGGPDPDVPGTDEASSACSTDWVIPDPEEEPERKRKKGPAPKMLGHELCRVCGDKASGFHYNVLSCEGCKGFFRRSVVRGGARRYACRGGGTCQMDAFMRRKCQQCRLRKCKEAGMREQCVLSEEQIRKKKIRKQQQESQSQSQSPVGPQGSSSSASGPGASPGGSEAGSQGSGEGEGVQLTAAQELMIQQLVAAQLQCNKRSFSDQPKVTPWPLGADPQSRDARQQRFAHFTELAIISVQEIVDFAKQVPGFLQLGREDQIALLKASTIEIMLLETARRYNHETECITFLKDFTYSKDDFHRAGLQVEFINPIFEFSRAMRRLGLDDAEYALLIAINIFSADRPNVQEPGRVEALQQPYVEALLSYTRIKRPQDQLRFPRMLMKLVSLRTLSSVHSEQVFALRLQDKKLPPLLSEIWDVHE
The experiment is classed as functional.

Experiment [5] addresses T5, Retinoic acid receptor alpha (Homo sapiens, UniProt P10276).
T5 sequence (P10276 whole entry): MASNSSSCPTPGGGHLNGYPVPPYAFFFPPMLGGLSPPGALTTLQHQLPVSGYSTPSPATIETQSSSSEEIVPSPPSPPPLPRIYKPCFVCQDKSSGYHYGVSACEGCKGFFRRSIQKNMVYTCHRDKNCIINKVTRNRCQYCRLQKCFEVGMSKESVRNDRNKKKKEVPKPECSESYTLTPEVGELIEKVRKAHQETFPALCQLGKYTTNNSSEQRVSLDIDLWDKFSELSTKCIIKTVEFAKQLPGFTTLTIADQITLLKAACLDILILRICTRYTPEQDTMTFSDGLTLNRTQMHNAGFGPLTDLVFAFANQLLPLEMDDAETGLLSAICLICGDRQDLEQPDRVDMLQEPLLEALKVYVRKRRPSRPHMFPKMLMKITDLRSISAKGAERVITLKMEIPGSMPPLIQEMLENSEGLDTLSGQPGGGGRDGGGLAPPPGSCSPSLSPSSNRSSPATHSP
In kind it is functional, cell-based.

Experiment [6] addresses T6, Oxysterols receptor LXR-alpha (Homo sapiens, UniProt Q13133).
T6 sequence (Q13133 whole entry): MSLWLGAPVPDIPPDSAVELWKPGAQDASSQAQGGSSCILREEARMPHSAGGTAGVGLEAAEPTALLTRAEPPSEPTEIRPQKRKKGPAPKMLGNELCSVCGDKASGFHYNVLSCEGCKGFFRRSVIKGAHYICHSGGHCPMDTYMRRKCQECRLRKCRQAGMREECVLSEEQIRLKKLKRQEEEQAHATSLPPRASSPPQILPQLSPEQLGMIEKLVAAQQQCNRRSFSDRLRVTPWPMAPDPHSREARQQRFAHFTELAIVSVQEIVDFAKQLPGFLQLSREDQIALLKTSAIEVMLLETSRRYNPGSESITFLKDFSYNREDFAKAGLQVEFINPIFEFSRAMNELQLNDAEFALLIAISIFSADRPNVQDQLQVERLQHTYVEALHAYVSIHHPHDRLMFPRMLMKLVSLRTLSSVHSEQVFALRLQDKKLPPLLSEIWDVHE
In kind it is functional.

Experiment [7] concerns the target T5, Retinoic acid receptor alpha. The experiment is classed as functional, cell-based. The source holds these as a separate data set.
Also: assay procedure not described here.

For `CC(C)c1c(C(=O)Nc2ccccc2)c(-c2ccccc2)c(-c2ccc(F)cc2)n1CC[C@@H](O)C[C@@H](O)CC(=O)O` [ATORVASTATIN], the AC50 in experiment [1] was above 10 µM; in experiment [2], above 30 µM; in experiment [3], above 30 µM; in experiment [4], above 30 µM; in experiment [5], above 30 µM; in experiment [6], above 30 µM. Moreover, the AC50 in experiment [7] is above 30 µM.
